Source: paper PMC6680932, “Structure–Antioxidant–Antiproliferative Activity Relationships of Natural C7 and C7–C8 Hydroxylated Flavones and Flavanones” (Antioxidants, 2019)
Where two headings read alike, the source gives them in different places.

Columns and labels:
DU 145 (prostate cancer) = test: Antiproliferative activity in vitro, SRB assay; format: cell-based, human; conditions: Homo sapiens, DU-145; 72 h exposure, SRB; read-out: IC50 ± SD DU 145
[1] = ABTS radical cation decolorization assay; conditions: 6 min incubation, 734 nm; mean ± SD
Experimental: (§1) The antioxidant capacity of flavonoids was measured in three separate tests: ABTS, DPPH, and ferric ion reducing antioxidant power (FRAP) assays (ABTS, DPPH, and FRAP reagents from Sigma-Aldrich). All tested compounds were dissolved in DMSO. All determinations were performed in triplicate. Standard curves were prepared for all assays using different concentrations of Trolox (6-hydroxy-2,5,7,8-tetramethylchroman-2-carboxylic acid) (Sigma-Aldrich). Trolox is a water-soluble analogue of vitamin E with high antioxidant activity, commonly used as a control and a reference in studies of antioxidant activity. The results were expressed as the equivalent of μmol Trolox per μmol of the test compound. The absorbance was measured using a UV-2401 PC spectrophotometer (Shimadzu, Kyoto, Japan). Concentrations of the tested samples were in the range from 50 µg/mL to 10 mg/mL.
The radical cation scavenging capacity of the tested compounds was examined against ABTS^+ (2,2’-azino-bis(3-ethylbenzo-thiazoline-6-sulfonic acid) according to the procedure described by Re et al. with some modifications. The test sample (30 μL) of known concentration was mixed in a polystyrene cuvette with 3 mL of ABTS solution with a measured absorption of 0.700 at a wavelength of λ = 734 nm. After 6 min of incubation, the absorption of samples was recorded. The ABTS reagent was freshly prepared before each experiment.

[2] = FRAP (ferric ion reducing antioxidant power) assay; conditions: 10 min, 593 nm; mean ± SD
Experimental: as §1
The FRAP method is based on measuring the ability of antioxidants to reduce ferric 2,4,6-tris(2-pyridyl)-1,3,5-triazine [Fe(III)-TPTZ] in the blue colored ferrous form, which absorbs light at λ = 593 nm. The Fe(III)-TPTZ reagent was prepared as a mixture of acetate buffer (pH 3.6), 10 mM TPTZ in 40 mM HCl, and 20 mM FeCl3 in the ratio of 10:1:1 (v/v/v). The FRAP reagent was freshly prepared before each experiment. The samples (0.1 mL) were mixed in polystyrene cuvettes with 3 mL of ferric complex and 0.9 mL of distilled water. The absorbance was measured after 10 min at λ = 593 nm.

[3] = DPPH free radical scavenging activity assay; conditions: 10 min, 517 nm; mean ± SD
Experimental: as §1
The DPPH (2,2-diphenyl-1-picrylhydrazyl) radical scavenging activity of samples was determined according to the method described by Yen and Chen with some modifications. Samples (0.1 mL) of known concentration were mixed in polystyrene cuvettes with 2 mL of 0.04 mM DPPH in ethanol and 0.4 mL of ethanol. The absorbance was measured after 10 min at λ = 517 nm. The DPPH reagent was freshly prepared before each experiment.

[4] = system: MV-4-11 (biphenotypic B myelomonocytic leukemia); test: Antiproliferative activity in vitro, MTT assay; format: cell-based, human; conditions: Homo sapiens, MV4-11, 72 h exposure, read-out: IC50 ± SD MV-4-11
LoVo (colon cancer) = test: Antiproliferative activity in vitro, SRB assay; format: cell-based, human; conditions: 72 h exposure, SRB, read-out: IC50 ± SD LoVo
Experimental: (§2) The antiproliferative studies were performed in vitro using human cancer cell lines—MV-4-11 (biphenotypic B myelomonocytic leukemia), MCF7 (breast carcinoma), LoVo (colon cancer), LoVo/DX (colon cancer doxorubicin-resistant), and DU 145 (prostate cancer)—and normal human cell lines—MCF 10A (breast cells) and HLMEC (lung microvascular endothelial cells). The cell lines MV-4-11, LoVo, DU 145, and MCF 10A were obtained from the American Type Culture Collection (Rockville, Maryland, USA), MCF7 from the European Collection of Authenticated Cell Cultures (ECACC, Salisbury, UK), LoVo/DX courtesy of Professor E. Borowski (Technical University of Gdansk, Poland), and HLMECs (which had been already immortalized by transfection with pSV3-neoplasmid containing large T-antigen gene) were the kind gift of Professor Claudine Kieda (Center for Molecular Biophysics, Orleans, France). The cell lines are being maintained in the Hirszfeld Institute of Immunology and Experimental Therapy, Polish Academy of Sciences (HIIET, PAS), Wroclaw, Poland. All cell lines were grown at 37 °C with 5% CO2 humidified atmosphere. The MV-4-11 cells were cultured in RPMI 1640 medium with GlutaMAX (Gibco, Scotland, UK), supplemented with 1 mM sodium pyruvate and 10% fetal bovine serum (both from Sigma-Aldrich, Poznan, Poland). The MCF7 cells were cultured in Eagle medium (HIIET, PAS, Wroclaw, Poland) supplemented with 2 mM L-glutamine, 10% fetal bovine serum, 1% nonessential amino acid solution, and 0.8 mg/L of insulin (all from Sigma-Aldrich, Poznan, Poland). The LoVo and LoVo/DX cells were cultured in a 1:1 (v/v) mixture of RPMI 1640 and Opti-MEM (both HIIET, PAS, Wroclaw, Poland), supplemented with 1 mM sodium pyruvate, 2 mM L-glutamine, and 5% fetal bovine serum (all from Sigma-Aldrich, Poznan, Poland). For LoVo/DX cells, additionally 10 µg/100 mL of doxorubicin (Accord Healthcare) was added to the medium. DU 145 cells were cultured in Eagle medium (HIIET, PAS, Wroclaw, Poland) supplemented with 1 mM sodium pyruvate, 4 mM L-glutamine, and 10% fetal bovine serum (all from Sigma-Aldrich, Poznan, Poland). The MCF 10A cells were cultured in the F-12 nutrient mixture (Gibco, Scotland, UK), supplemented with 5% horse serum (Gibco, Scotland, UK), 0.05 μg/mL of cholera toxin (Vibrio cholerae), 0.5 μg/mL of hydrocortisone, 10 μg/mL of insulin, and 20 ng/mL of human epidermal growth factor (all from Sigma-Aldrich, Poznan, Poland). The HLMEC cells were cultured in the RPMI 1640 medium (HIIET, PAS, Wroclaw, Poland) with the addition of 2 mM L-glutamine (Sigma-Aldrich, Poznan, Poland) and 10% fetal bovine serum (GE Healthcare). All culture media were supplemented with 100 units/mL penicillin (Polfa Tarchomin S.A., Warsaw, Poland) and 100 µg/mL streptomycin (Sigma-Aldrich, Poznan, Poland). Twenty-four hours before addition of the tested agents, the cells were plated in 96-well plates (Sarstedt, Germany) at a density of 1 × 10^4 (1 × 10^3 for HLMEC and 0.75 × 10^4 for MCF7) cells per well in 100 μL of culture medium.
(§3) Tested compounds were dissolved in DMSO and then diluted in a 1:1 (v/v) mixture of RPMI 1640 (HIIET, PAS, Wroclaw, Poland) and Opti-MEM (Gibco, Scotland, UK) medium supplemented with 2 mM L-glutamine (Sigma-Aldrich, Poznan, Poland), 5% fetal bovine serum (GE Healthcare), 100 units/mL penicillin (Polfa Tarchomin S.A., Warsaw, Poland), and 100 µg/mL streptomycin (Sigma-Aldrich, Poznan, Poland). The antiproliferative effects of the flavonoids were examined after 72 h of exposure of the cultured cells to varying concentrations of the tested agents (from 0.1 to 100 μg/mL) using the MTT (for MV-4-11 cells) or SRB assay described below. Cisplatin (chemotherapy drug used to treat a number of cancers) was used as a positive control. The results are presented as an inhibitory concentration 50 (IC50), which is the concentration of the tested agent that inhibits proliferation of the cell population by 50%. IC50 values for each experiment were calculated separately. […]

MCF 10A (breast cells) = test: Antiproliferative activity in vitro, SRB assay; format: cell-based, human; conditions: Homo sapiens, MCF-10A; 72 h exposure, SRB; normal cell line; read-out: IC50 ± SD MCF 10A
Experimental: as §2, §3

[5] = system: HLMEC (lung microvascular endothelial cells); test: Antiproliferative activity in vitro, SRB assay; format: cell-based, human; conditions: Homo sapiens, Endothelial cell; 72 h exposure, SRB; normal cell line; read-out: IC50 ± SD HLMEC
Experimental: as §2, §3

MCF7 (breast carcinoma) = test: Antiproliferative activity in vitro, SRB assay; format: cell-based, human; conditions: Homo sapiens, MCF7; 72 h exposure, SRB; read-out: IC50 ± SD MCF7
Experimental: as §2, §3

[6] = system: LoVo/DX (colon cancer doxorubicin-resistant); test: Antiproliferative activity in vitro, SRB assay; format: cell-based, human; conditions: Homo sapiens, LoVo/DX, 72 h exposure, read-out: IC50 ± SD LoVo/DX
[7] = Stability of flavonoids before administration to the cell cultures (diluted in RPMI 1640/Opti-MEM medium), HPLC; format: physicochemical; conditions: 100 µg/mL, medium with 2 mM L-glutamine, 5% fetal bovine serum, penicillin, streptomycin; 3 h incubation
Experimental: Tested compounds were dissolved in DMSO and then diluted in a 1:1 (v/v) mixture of RPMI 1640 (HIIET, PAS, Wroclaw, Poland) and Opti-MEM (Gibco, Scotland, UK) medium supplemented with 2 mM L-glutamine (Sigma-Aldrich, Poznan, Poland), 5% fetal bovine serum (GE Healthcare), 100 units/mL penicillin (Polfa Tarchomin S.A., Warsaw, Poland), and 100 µg/mL streptomycin (Sigma-Aldrich, Poznan, Poland). The antiproliferative effects of the flavonoids were examined after 72 h of exposure of the cultured cells to varying concentrations of the tested agents (from 0.1 to 100 μg/mL) using the MTT (for MV-4-11 cells) or SRB assay described below. Cisplatin (chemotherapy drug used to treat a number of cancers) was used as a positive control. The results are presented as an inhibitory concentration 50 (IC50), which is the concentration of the tested agent that inhibits proliferation of the cell population by 50%. IC50 values for each experiment were calculated separately.
(§4) Flavonoids were dissolved (as described in Section 2.4) to the concentration of 100 µg/mL. The solutions corresponding to the solutions before the administration to the cell cultures were incubated in 96-well plates for 3 h and transferred to microtubes containing 400 µL of cold methanol (−20 °C) and kept at −20 °C for 1 h. After centrifugation at 12,000× g for 10 min, samples were analyzed by HPLC. Control experiments were also carried out to determine the stability of flavonoids in DMSO under analogous conditions.

[8] = Stability of flavonoids in DMSO (control), HPLC; format: physicochemical; conditions: 3 h of incubation
Experimental: as §4

Structure (SMILES) | IC50 (DU 145 (prostate cancer)) | TEAC ABTS [1] | TEAC FRAP [2] | TEAC DPPH [3] | IC50 [4] | IC50 (LoVo (colon cancer)) | IC50 (LoVo (colon cancer); Homo sapiens, LoVo, 72 h) | IC50 (MCF 10A (breast cells)) | IC50 [5] | IC50 (MCF7 (breast carcinoma)) | IC50 [6] | stability after dilution with 1:1 RPMI 1640/Opti-MEM medium [7] | compound observed after incubation in DMSO [8]
O=c1cc(-c2ccc(O)c(O)c2)oc2cc(O)cc(O)c12 [Compound 3, luteolin] | 21.9 ± 6.11 µM | 16.645 ± 0.897 µmol trolox per µmol of tested | 17.686 ± 0.327 µmol trolox per µmol of tested | 10.50 ± 0.117 µmol trolox per µmol of tested | 8.73 ± 2.23 µM | 13.5 ± 0.65 µM | 14 to 15 µM | 33.1 ± 10.3 µM | 9.22 ± 0.64 µM | 25.5 ± 6.33 µM | 13.7 ± 1.65 µM |  | 
O=C1C[C@@H](c2ccccc2)Oc2cc(O)cc(O)c21 [Compound 5, Pinocembrin] | 119 ± 22.4 µM | 0.165 ± 0.009 µmol trolox per µmol of tested |  | 0.005 ± 0.001 µmol trolox per µmol of tested | 99.1 ± 34.1 µM |  | 116 ± 10.6 µM | 125 ± 5.77 µM | 96.6 ± 7.23 µM | 148 ± 6.57 µM | 67 ± 15.8 µM |  | 
COc1ccc([C@@H]2CC(=O)c3c(O)cc(O)cc3O2)cc1O [Compound 8, hesperetin] | 215 ± 32.1 µM | 13.254 ± 0.123 µmol trolox per µmol of tested | 4.025 ± 0.175 µmol trolox per µmol of tested | 0.098 ± 0.002 µmol trolox per µmol of tested | 140 ± 12.9 µM |  | 104 ± 5.55 µM | 207 ± 23.4 µM | 98.3 ± 7.62 µM | 167 ± 13.1 µM | 77.2 ± 19.4 µM |  | 
O=C1C[C@@H](c2ccc(O)cc2)Oc2c(O)c(O)cc(O)c21 [Compound 14, 8-hydroxynaringenin] |  |  |  |  |  |  |  |  |  |  |  | complete decomposition | over 99%
O=C1C[C@@H](c2ccc(O)cc2)Oc2cc(O)c(O)c(O)c21 [Compound 15, 6-hydroxynaringenin] |  |  |  |  |  |  |  |  |  |  |  | complete decomposition | over 99%
